Experimental findings from patent US20080234229A1, “Novel Therapeutic Agents for the Treatment of Cancer, Metabolic Diseases and Skin Disorders” (AUSPEX PHARMACEUTICALS, INC., priority 2005, published 2008) are described below.

One experiment deals with SKMES cells. Put plainly: SKMES Tumor Cell Proliferation Assay (Alamar Blue). The format is cell-based. As to conditions: human SKMES carcinoma cells; for growth inhibitory effect compared to Targretin: FIG. 2. The procedure: SKMES cells (8×10^3/well in 90% RPMI-1640 medium plus 2 mM glutamine, 10 mM HEPES and 10% Fetal Bovine Serum [FBS]), are pre-incubated in 96-well plates in an atmosphere of 5% CO2 at 37° C. for 24 hours. Test compounds and/or vehicle is then added to each well with a final concentration of 0.5% DMSO, pH 7.4 in RPMI-1640 for an additional 72 hours. After a further 150 minutes incubation in the presence of Alamar Blue, fluorescence intensity is measured using a Gemini plate reader with excitation at 530 nm and emission at […].
On the technique in general: The colour change of resazurin is a common sign of viable cells or microbes.

The next experiment relates to A375 cells. Put plainly: A375 Tumor Cell Proliferation Assay (Alamar Blue). The format is cell-based, human. As to conditions: for growth inhibitory effect compared to Targretin: FIG. 1; for TGI (Total Growth Inhibition) / IC50: A375 cells, 72 to 168 hours, reference data; for IC50: A-375, read-out: IC50 (50% Inhibitory Concentration). The procedure: A375 cells (5,000 per well in 90% RPMI-1640 plus 10% Fetal Bovine Serum [FBS]) were pre-incubated in a black clear bottom 96-well plate in an atmosphere of 5% CO2 at 37° C. for 24 hours. Stock solutions of compounds in DMSO were diluted using a buffer and dilutions were added to each well. […] The final assay pH was 7.4. The cells were incubated in RPMI-1640 with each compound for an additional 72 to 168 hours. Alamar Blue was added and the plate was incubated for an additional 12 hours. Fluorescence intensity was measured using a Gemini plate reader with excitation at 530 nm and emission at 590 nm. A decrease of 50 percent or more (≧50%) in fluorescence intensity relative to vehicle treated controls is an indication of significant anti-cancer activity.
TGI (Total Growth Inhibition): Test compound concentration where the increase in number or mass of cells after 72 to 168 hours is reduced to equal that at time t=0.

A further experiment concerns SW-480 cells. Put plainly: SW-480 Tumor Cell Proliferation Assay (Alamar Blue). It is filed as cell-based. As to conditions: human SW480 carcinoma cells; for growth inhibitory effect compared to Targretin: FIG. 3; for growth inhibitory effect in the presence of Irinotican: varying concentrations, combination with Irinotican, FIG. 6 and 7. How it is done: SW-480 cells (4×10^3/well in 90% EMEM medium plus 2 mM glutamine, 1 mM pyruvate, 0.1 mM non-essential amino acids and 10% Fetal Bovine Serum [FBS]), are pre-incubated in 96-well plates in an atmosphere of 5% CO2 at 37° C. for 24 hours. Test compounds and/or vehicle is then added to each well with a final concentration of 0.5% DMSO, pH 7.4 in EMEM for an additional 72 hours. After a further 6-hour incubation in the presence of Alamar Blue, fluorescence intensity is measured using a Gemini plate reader with excitation at 530 nm and emission at 590 nm.

For `C=C(c1ccc(B(O)O)cc1)c1cc2c(cc1C)C(C)(C)CCC2(C)C` [Example 5, 4-[1-(3,5,5,8,8-Pentamethyl-5,6,7,8-tetrahydro-naphthalen-2-yl)-vinyl]-phenylboronic acid], the “growth inhibitory effect compared to Targretin” value with SKMES cells, in the experiment on A375 cells (human A375 carcinoma cells) and in the experiment with SW-480 cells was “enhanced activity” in each case. In addition, the “growth inhibitory effect in the presence of Taxol” value in the experiment on SKMES cells (varying concentrations, combination with Taxol, FIG. 4) is on record as “synergism”; with A375 cells (human A375 carcinoma cells, varying concentrations, combination with Taxol, FIG. 5), “synergism”. Moreover, the “growth inhibitory effect in the presence of Irinotican” value in the experiment with SW-480 cells is listed as “synergism”.
In turn, `CO[C@@]12[C@H](COC(N)=O)C3=C(C(=O)C(C)=C(N)C3=O)N1C[C@@H]1N[C@@H]12` [Mitomycin] gave a TGI (Total Growth Inhibition) with A375 cells of 8 µM. Besides, the IC50 in the experiment on A375 cells (Homo sapiens) is 4.2 µM.
In turn, `COc1cccc2c1C(=O)c1c(O)c3c(c(O)c1C2=O)C[C@@](O)(C(=O)CO)C[C@@H]3O[C@H]1C[C@H](N)[C@H](O)[C@H](C)O1` [Doxorubicin] registered a TGI (Total Growth Inhibition) in the experiment with A375 cells of 0.3 µM. Moreover, the IC50 with A375 cells (Homo sapiens) came out at 0.19 µM. The CC50 in the experiment on A375 cells (Homo sapiens, A-375, read-out: LC50 (50% Lethal Concentration)) was found to be 8 µM.
For `C=C(c1ccc(B2OC(C)(C)C(C)(C)O2)cc1)c1cc2c(cc1C)C(C)(C)CCC2(C)C` [Example 4, 4,4,5,5-Tetramethyl-2-{4-[1-(3,5,5,8,8-pentamethyl-5,6,7,8-tetrahydro-naphthalen-2-yl)-vinyl]-phenyl}-[1,3,2]dioxaborolane], the “growth inhibitory effect compared to Targretin” value in the experiment on SKMES cells, in the experiment with A375 cells (human A375 carcinoma cells) and in the experiment with SW-480 cells was “enhanced activity” each time. In the experiment on SW-480 cells, the “growth inhibitory effect in the presence of Irinotican” value is “synergism”.
